This passage reports EC50 results from BindingDB's records for doi:10.1016/j.bmcl.2020.127004 (Merck, 2020).

pEC50: −log10 of the molar value.

A short description of assay [1]: Non-nucleoside inhibition of NS5B polymerase in HCV genotype 1a by Taqman probe based RT-PCR analysis.
Assay [2] can be described thus: Non-nucleoside inhibition of NS5B polymerase in HCV genotype 1b by Taqman probe based RT-PCR analysis.
Assay [3] in a line: Non-nucleoside inhibition of NS5B polymerase in HCV genotype 2a by Taqman probe based RT-PCR analysis.
A short description of assay [4]: Non-nucleoside inhibition of NS5B polymerase in HCV genotype 2b by Taqman probe based RT-PCR analysis.
Assay [5] is described as follows: Non-nucleoside inhibition of NS5B polymerase in HCV genotype 3a by Taqman probe based RT-PCR analysis.
Assay [6] is described as follows: Non-nucleoside inhibition of NS5B polymerase in HCV genotype 4a by Taqman probe based RT-PCR analysis.
Assay [7] can be described thus: Non-nucleoside inhibition of NS5B polymerase C316Y mutant in HCV genotype 1a by Taqman probe based RT-PCR analysis.
Assay [8] is described as follows: Non-nucleoside inhibition of NS5B polymerase S365A mutant in HCV genotype 1a by Taqman probe based RT-PCR analysis.

Turning to `CNC(=O)c1c(-c2ccc(F)cc2)oc2cc(N(C)S(C)(=O)=O)c(-c3ccc4nnn(C(C)c5ccc(F)cc5)c(=O)c4c3)cc12` (stereo not given), the negative-log EC50 (pEC50) in assay [1] is 8.55; in assay [2] it was 8.54; in assay [3], 8.03; in assay [4] it was 8.24; in assay [5], 9.10; in assay [6], 8.96. Moreover, the pEC50 is 7.82 in assay [7] and 6.56 in assay [8].

Regarding `CNC(=O)c1c(-c2ccc(F)cc2)oc2cc(N(C)S(C)(=O)=O)c(-c3ccc4nnn(C(CO)c5ccc(F)cc5)c(=O)c4c3)cc12` (stereo not given), the pEC50 in assay [1] is 8.14; in assay [2], 8.25; in assay [3], 7.70; in assay [4] it was 8.22; in assay [5] it was 9.05; in assay [6], 8.35. In addition, the results for the pEC50 in assay [7] and in assay [8] were 6.28 and 5.95, respectively.

Consider `CNC(=O)c1c(-c2ccc(F)cc2)oc2cc(N(C)S(C)(=O)=O)c(-c3ccc4nc(C)n(Cc5ccc(F)cn5)c(=O)c4c3)cc12`, for which the pEC50 in assay [1] was 8.89; in assay [2], 8.59; in assay [3], 7.96; in assay [4] it was 8.38; in assay [5] it was 8.77; in assay [6] it was 8.80. The negative logarithm of the EC50 (pEC50) in assay [7] is 7.44; in assay [8], 6.64.

In the case of `CNC(=O)c1c(-c2ccc(F)cc2)oc2cc(N(C)S(C)(=O)=O)c(-c3ccc4nc(C)n(Cc5ccc(F)cc5OC)c(=O)c4c3)cc12`, the pEC50 in assay [1] was 9.00; in assay [2], 8.82; in assay [3] it was 7.89; in assay [4], 8.30; in assay [5], 8.96; in assay [6] it was 8.66. In addition, the pEC50 in assay [7] was 7.36; in assay [8] it was 6.75.

In the case of `CNC(=O)c1c(-c2ccc(F)cc2)oc2cc(N(C)S(C)(=O)=O)c(-c3ccc4nc(C)n(Cc5ccc(F)cc5F)c(=O)c4c3)cc12`, the negative logarithm of the EC50 (pEC50) in assay [1] was 9.30; in assay [2], 9.10; in assay [3] it was 8.08; in assay [4], 8.27; in assay [5], 9.05; in assay [6], 9.15. Further, the pEC50 in assay [7] was 8.27; in assay [8], 7.96.

Consider `CNC(=O)c1c(-c2ccc(F)cc2)oc2cc(N(C)S(C)(=O)=O)c(-c3ccc4nc(C)n([C@H](COC)c5ccc(F)cc5)c(=O)c4c3)cc12`, for which the negative logarithm of the EC50 (pEC50) is 9.22 in assay [1]; 8.96 in assay [2]; 7.72 in assay [3]; 7.96 in assay [4]; 8.80 in assay [5]; 8.62 in assay [6]. Moreover, the results for the pEC50 in assay [7] and in assay [8] were 7.68 and 7.43, respectively.

Take `CNC(=O)c1c(-c2ccc(F)cc2)oc2cc(N(C)S(C)(=O)=O)c(-c3ccc4nc(C)n([C@@H](COC)c5ccc(F)cc5)c(=O)c4c3)cc12`: the negative logarithm of the EC50 (pEC50) in assay [1] is 9.30; in assay [2], 8.96; in assay [3], 8.12; in assay [4], 8.39; in assay [5] it was 8.96; in assay [6], 9.22. Further, the values for the pEC50 in assay [7] and in assay [8] were 7.52 and 7.77, respectively.

In the case of `CNC(=O)c1c(-c2ccc(F)cc2)oc2cc(N(C)S(C)(=O)=O)c(-c3ccc4c(n3)C(=O)N(c3ccc(F)cc3)CO4)cc12` [US9364482, 2], the pEC50 is 7.72 in assay [1]; 8.42 in assay [2]; 6.82 in assay [3]; 7.72 in assay [4]; 8.82 in assay [5]; 8.08 in assay [6]. Further, the negative-log EC50 (pEC50) was 6.34 in assay [7] and 5.87 in assay [8].

For `CNC(=O)c1c(-c2ccc(F)cc2)oc2cc(N(C)S(C)(=O)=O)c(-c3ccc4c(n3)C(=O)N(Cc3ccc(F)cc3)CO4)cc12` [US9364482, 6], the pEC50 is 8.80 in assay [1]; 8.89 in assay [2]; 8.34 in assay [3]; 7.72 in assay [4]; 8.74 in assay [5]; 9.52 in assay [6]. The pEC50 in assay [7] was 8.46; in assay [8] it was 9.15.

Turning to `CNC(=O)c1c(-c2ccc(F)cc2)oc2cc(N(C)S(C)(=O)=O)c(-c3ccc4nnn([C@H](COC)c5ccc(F)cc5)c(=O)c4c3)cc12` [US9364482, 39], the pEC50 in assay [1] was 8.92; in assay [2], 8.59; in assay [3], 7.92; in assay [4], 8.41; in assay [5] it was 9.00; in assay [6], 9.15. Further, the pEC50 in assay [7] is 7.74; in assay [8], 7.17.

As to `CNC(=O)c1c(-c2ccc(F)cc2)oc2cc(N(C)S(C)(=O)=O)c(-c3ccc4nnn([C@@H](COC)c5ccc(F)cc5)c(=O)c4c3)cc12` [US9364482, 41], the pEC50 in assay [1] is 8.31; in assay [2], 8.25; in assay [3], 7.80; in assay [4], 7.96; in assay [5], 8.74; in assay [6] it was 8.22. Further, the figures for the pEC50 in assay [7] and in assay [8] were 6.53 and 6.32, respectively.

Take `CNC(=O)c1c(-c2ccc(F)cc2)oc2cc(N(C)S(C)(=O)=O)c(-c3ccc4nnn(Cc5ccccc5)c(=O)c4c3)cc12` [US9364482, 42]: the pEC50 is 8.64 in assay [1]; 8.46 in assay [2]; 8.06 in assay [3]; 8.21 in assay [4]; 9.00 in assay [5]; 8.52 in assay [6]. Moreover, the results for the pEC50 in assay [7] and in assay [8] were 7.17 and 6.47, respectively.

For `CNC(=O)c1c(-c2ccc(F)cc2)oc2cc(N(C)S(C)(=O)=O)c(-c3ccc4nnn(Cc5ccc(F)cc5)c(=O)c4c3)cc12` [US9364482, 44], the negative logarithm of the EC50 (pEC50) was 8.77 in assay [1]; 8.41 in assay [2]; 7.89 in assay [3]; 8.40 in assay [4]; 9.10 in assay [5]; 8.85 in assay [6]. The figures for the pEC50 in assay [7] and in assay [8] were 7.92 and 7.12, respectively.

Regarding `CNC(=O)c1c(-c2ccc(F)cc2)oc2cc(N(C)S(C)(=O)=O)c(-c3ccc4nnn(Cc5ccc(F)cn5)c(=O)c4c3)cc12` [US9364482, 48], the pEC50 is 8.48 in assay [1]; 8.57 in assay [2]; 7.96 in assay [3]; 8.25 in assay [4]; 8.96 in assay [5]; 8.68 in assay [6]. Besides, the figures for the pEC50 in assay [7] and in assay [8] were 7.54 and 6.35, respectively.

Turning to `CNC(=O)c1c(-c2ccc(F)cc2)oc2cc(N(C)S(C)(=O)=O)c(-c3ccc4ncn(Cc5ccccc5)c(=O)c4c3)cc12` [US9364482, 49], the pEC50 was 8.49 in assay [1]; 8.46 in assay [2]; 7.74 in assay [3]; 8.03 in assay [4]; 8.92 in assay [5]; 8.46 in assay [6]. In addition, the pEC50 in assay [7] is 7.15; in assay [8], 6.72.

Consider `CNC(=O)c1c(-c2ccc(F)cc2)oc2cc(N(C)S(C)(=O)=O)c(-c3ccc4nc(COC)n(Cc5ccc(F)cc5)c(=O)c4c3)cc12` [US9364482, 53], for which the pEC50 in assay [1] was 8.68; in assay [2] it was 8.62; in assay [3], 8.09; in assay [4] it was 8.43; in assay [5], 9.10; in assay [6] it was 9.05. The pEC50 was 8.39 in assay [7] and 7.72 in assay [8].

For the compound `CNC(=O)c1c(-c2ccc(F)cc2)oc2cc(N(C)S(C)(=O)=O)c(-c3ccc4nc(CNC(C)=O)n(Cc5ccc(F)cc5)c(=O)c4c3)cc12` [US9364482, 54], the pEC50 is 8.96 in assay [1]; 8.55 in assay [2]; 7.24 in assay [3]; 8.23 in assay [4]; 8.85 in assay [5]; 8.18 in assay [6]. The results for the pEC50 in assay [7] and in assay [8] were 7.49 and 8.08, respectively.

In the case of `CNC(=O)c1c(-c2ccc(F)cc2)oc2cc(N(C)S(C)(=O)=O)c(-c3ccc4nc(C)n(Cc5ccc(F)cc5)c(=O)c4c3)cc12` [US9364482, 55], the negative-log EC50 (pEC50) is 9.52 in assay [1]; 8.96 in assay [2]; 8.39 in assay [3]; 8.82 in assay [4]; 9.22 in assay [5]; 9.22 in assay [6]. The negative-log EC50 (pEC50) in assay [7] was 8.54; in assay [8] it was 8.15.

As to `CNC(=O)c1c(-c2ccc(F)cc2)oc2cc(N(C)S(C)(=O)=O)c(-c3ccc4nc(C)n(Cc5ccc(F)cc5)c(=O)c4n3)cc12` [US9364482, 68], the negative-log EC50 (pEC50) was 8.96 in assay [1]; 8.80 in assay [2]; 8.00 in assay [3]; 8.57 in assay [4]; 9.00 in assay [5]; 8.54 in assay [6]. Besides, the values for the negative logarithm of the EC50 (pEC50) in assay [7] and in assay [8] were 7.44 and 6.86, respectively.

Consider `CNC(=O)c1c(-c2ccc(F)cc2)oc2cc(N(C)S(C)(=O)=O)c(-c3cc4c(=O)n(Cc5ccc(F)cc5)nnc4cc3F)cc12` [US9364482, 70], for which the pEC50 in assay [1] was 9.15; in assay [2], 8.57; in assay [3], 8.21; in assay [4] it was 8.54; in assay [5], 8.92; in assay [6], 8.92. Further, the negative logarithm of the EC50 (pEC50) in assay [7] is 8.25; in assay [8], 7.33.
